Assay results taken from ChEMBL document CHEMBL1914445 (Eur J Med Chem, 2011).
pIC50, pKi: −log10 of the molar value.

Assays:
[1] = target: T1, Acetylcholinesterase (Electrophorus electricus, UniProt O42275)
Description: Inhibition of Electrophorus electricus AChE using acetylthiocholine iodide as substrate preincubated for 10 mins before substrate addition by Ellman's method in presence of bovine serum albumin

[2] = target: T2, Cholinesterase (Equus caballus, UniProt P81908)
Description: Inhibition of equine serum BuChE using butyrylthiocholine iodide as substrate preincubated for 10 mins before substrate addition by Ellman's method in presence of bovine serum albumin

[3] = target: T3, Acetylcholinesterase (Homo sapiens, UniProt P22303); assay: Inhibition of human recombinant AChE using acetylthiocholine as substrate by Ellman's assay in presence of bovine serum albumin
[4] = target: T4, Cholinesterase (Homo sapiens, UniProt P06276); assay: Inhibition of human serum BuChE using butyrylthiocholine as substrate by Ellman's assay in presence of bovine serum albumin
T4 sequence (P06276 whole entry): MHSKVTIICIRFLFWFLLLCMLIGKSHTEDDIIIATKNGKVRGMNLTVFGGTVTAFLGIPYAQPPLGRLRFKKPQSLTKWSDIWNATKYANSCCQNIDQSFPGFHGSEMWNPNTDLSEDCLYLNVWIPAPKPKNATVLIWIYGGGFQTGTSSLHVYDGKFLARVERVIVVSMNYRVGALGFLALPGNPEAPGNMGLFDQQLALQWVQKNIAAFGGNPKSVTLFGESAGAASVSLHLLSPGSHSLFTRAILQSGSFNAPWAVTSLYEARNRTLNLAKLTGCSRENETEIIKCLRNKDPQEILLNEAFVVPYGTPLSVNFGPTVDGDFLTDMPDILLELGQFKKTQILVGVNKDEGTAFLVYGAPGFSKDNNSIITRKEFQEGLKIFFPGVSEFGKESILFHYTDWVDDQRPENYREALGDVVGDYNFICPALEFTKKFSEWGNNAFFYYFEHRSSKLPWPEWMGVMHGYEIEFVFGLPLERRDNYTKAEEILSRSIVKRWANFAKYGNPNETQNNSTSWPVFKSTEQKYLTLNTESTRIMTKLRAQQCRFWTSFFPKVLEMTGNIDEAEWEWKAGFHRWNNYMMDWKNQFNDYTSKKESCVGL

[5] = target: T2, Cholinesterase; assay: Inhibition of equine serum BuChE using butyrylthiocholine iodide as substrate preincubated for 10 mins before substrate addition by Ellman's method
[6] = target: T3, Acetylcholinesterase; assay: Inhibition of human recombinant AChE using acetylthiocholine as substrate by Ellman's assay
[7] = target: T4, Cholinesterase; assay: Inhibition of human serum BuChE using butyrylthiocholine as substrate by Ellman's assay
[8] = target: T1, Acetylcholinesterase; remark: listed apart in the source
Description: Inhibition of Electrophorus electricus AChE using acetylthiocholine iodide as substrate preincubated for 10 mins before substrate addition by Ellman's method

[9] = species on record: Homo sapiens; assay: Selectivity ratio of IC50 for human […]
[10] = target: T1, Acetylcholinesterase; assay: Mixed-type inhibition of Electrophorus electricus AChE assessed as hydrolysis of acetylthiocholine by Lineweaver-Burk plot analysis
[11] = system: SH-SY5Y; assay: Neuroprotective activity against amyloid beta(25-32)-induced toxicity in human SH-SY5Y cells assessed as reduction in cell viability at 0.3 uM preincubated for 24 hrs measured after 24 hrs by MTT assay; type: functional
[12] = system: SH-SY5Y; assay: Neuroprotective activity against amyloid beta(25-32)-induced toxicity in human SH-SY5Y cells assessed as reduction in cell viability at 1 uM preincubated for 24 hrs measured after 24 hrs by MTT assay; type: functional
[13] = system: SH-SY5Y; assay: Neuroprotective activity against amyloid beta(25-32)-induced toxicity in human SH-SY5Y cells assessed as reduction in cell viability at 3 uM preincubated for 24 hrs measured after 24 hrs by MTT assay; type: functional

T1 sequence (O42275 whole entry): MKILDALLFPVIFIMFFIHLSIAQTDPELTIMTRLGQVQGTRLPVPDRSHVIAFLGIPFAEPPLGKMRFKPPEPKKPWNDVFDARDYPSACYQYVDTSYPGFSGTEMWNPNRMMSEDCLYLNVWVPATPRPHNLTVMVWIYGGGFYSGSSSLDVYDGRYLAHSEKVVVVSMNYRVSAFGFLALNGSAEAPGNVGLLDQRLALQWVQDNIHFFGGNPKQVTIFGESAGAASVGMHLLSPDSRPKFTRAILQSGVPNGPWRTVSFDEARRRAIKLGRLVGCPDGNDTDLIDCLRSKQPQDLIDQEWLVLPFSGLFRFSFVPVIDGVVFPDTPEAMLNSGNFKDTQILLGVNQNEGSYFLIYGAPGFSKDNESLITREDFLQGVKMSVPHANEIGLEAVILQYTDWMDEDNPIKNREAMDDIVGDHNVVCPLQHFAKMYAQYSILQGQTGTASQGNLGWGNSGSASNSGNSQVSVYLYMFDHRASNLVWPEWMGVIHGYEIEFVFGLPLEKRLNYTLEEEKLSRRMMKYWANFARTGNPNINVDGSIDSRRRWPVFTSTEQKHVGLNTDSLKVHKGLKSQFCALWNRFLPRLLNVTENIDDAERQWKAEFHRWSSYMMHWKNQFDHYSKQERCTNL
T2 sequence (P81908 whole entry): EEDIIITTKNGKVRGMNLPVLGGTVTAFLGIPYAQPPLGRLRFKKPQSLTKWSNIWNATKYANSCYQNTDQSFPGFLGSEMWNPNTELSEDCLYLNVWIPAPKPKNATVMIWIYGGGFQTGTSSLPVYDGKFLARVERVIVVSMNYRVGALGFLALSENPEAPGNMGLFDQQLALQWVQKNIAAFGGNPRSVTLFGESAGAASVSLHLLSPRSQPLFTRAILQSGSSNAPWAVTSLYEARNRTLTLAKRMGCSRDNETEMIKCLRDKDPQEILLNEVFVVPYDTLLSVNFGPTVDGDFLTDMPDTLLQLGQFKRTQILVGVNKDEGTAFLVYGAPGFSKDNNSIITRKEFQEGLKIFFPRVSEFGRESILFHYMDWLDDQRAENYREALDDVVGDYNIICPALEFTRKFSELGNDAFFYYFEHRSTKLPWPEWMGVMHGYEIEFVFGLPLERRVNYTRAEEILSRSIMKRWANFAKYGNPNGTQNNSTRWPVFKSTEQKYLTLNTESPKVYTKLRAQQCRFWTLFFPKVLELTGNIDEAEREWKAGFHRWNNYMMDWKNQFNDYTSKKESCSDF
T3 sequence (P22303 whole entry): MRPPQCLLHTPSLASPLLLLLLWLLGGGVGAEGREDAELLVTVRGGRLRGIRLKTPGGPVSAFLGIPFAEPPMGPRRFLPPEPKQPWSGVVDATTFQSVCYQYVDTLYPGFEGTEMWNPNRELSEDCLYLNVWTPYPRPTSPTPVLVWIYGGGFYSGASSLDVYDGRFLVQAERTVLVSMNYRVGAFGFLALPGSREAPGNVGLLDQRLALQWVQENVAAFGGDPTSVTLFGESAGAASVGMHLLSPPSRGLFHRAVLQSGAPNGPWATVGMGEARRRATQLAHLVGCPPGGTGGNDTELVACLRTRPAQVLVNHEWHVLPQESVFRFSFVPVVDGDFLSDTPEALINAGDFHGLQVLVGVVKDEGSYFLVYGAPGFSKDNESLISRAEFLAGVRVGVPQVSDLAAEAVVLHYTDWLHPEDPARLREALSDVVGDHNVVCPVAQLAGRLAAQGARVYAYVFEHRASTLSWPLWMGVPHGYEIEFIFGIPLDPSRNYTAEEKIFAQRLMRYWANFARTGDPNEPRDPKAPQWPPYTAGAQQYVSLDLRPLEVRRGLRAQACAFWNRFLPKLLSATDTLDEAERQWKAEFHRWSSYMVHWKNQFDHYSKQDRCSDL

Structure (SMILES) | pIC50 [1] | pIC50 [2] | pIC50 [5] | pIC50 [6] | pIC50 [7] | pIC50 [8] | other results
Nc1c2c(nc3oc(-c4ccc(Cl)cc4)cc13)CCCCC2 | < 4.00 | 4.37 | – | – | – | – | –
N#Cc1c(-c2ccc(Cl)cc2)oc2nc3c(c(N)c12)CCCC3 | < 4.00 | 4.49 | – | – | – | – | pIC50 [3]: < 4.00; pIC50 [4]: < 4.00
Nc1c2c(nc3c1cc(-c1ccc(Cl)cc1)n3-c1ccccc1)CCCC2 | 4.62 | 4.82 | – | – | – | – | –
Cc1ccc(-c2cc3c(N)c4c(nc3o2)CCCC4)cc1 | – | – | 5.54 | < 4.00 | 3.92 | < 4.00 | –
Cc1ccc(-c2cc3c(N)c4c(nc3o2)CCCCC4)cc1 | < 4.52 | 4.89 | – | – | – | – | –
Nc1c2c(nc3c1cc(-c1ccccc1)n3-c1ccccc1)CCCCC2 | < 4.52 | 5.96 | – | – | – | – | –
Nc1c2c(nc3oc(-c4ccccc4)cc13)CCCCC2 | – | – | 5.22 | – | – | < 4.00 | –
Nc1c2c(nc3c1cc(-c1ccccc1)n3-c1ccccc1)CCCC2 | – | – | 7.13 | 4.34 | 5.07 | 6.21 | Ratio IC50 [9]: 5; pKi [10]: 6.21; Activity [11]: 11.4%; Activity [12]: 19%; Activity [13]: 23.7%
Nc1c2c(nc3oc(-c4ccc(Cl)cc4)cc13)CCCC2 | – | – | 4.64 | < 4.00 | 4.58 | < 4.00 | –
Nc1c2c(nc3oc(-c4ccccc4)cc13)CCCC2 | – | – | 5.44 | < 4.00 | 5.42 | < 4.00 | –
